# Source: the supplement of paper PMC10883282
# ± gives the standard deviation of the averaged measurements.
# How the values were obtained:
# Experiment in all cases: relative viability vs DMSO control (72 h) (fraction); higher = more viable cells
# [1] = tested on: HT1080
# How it was run: (§1)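 Sarcoma cell lines were seeded in 384-well plates at densities chosen for 80–90% confluence, then 24 h later given 2.5 µl of serially diluted compound drawn from source plates spanning 10 mM to 0.0002 mM. They were held 72 h at 37 °C, 5% CO2, with 0.1% DMSO vehicle and a 5 µM positive control included. Relative viability was read with ATPLite as percent growth and averaged over up to triplicate wells. Rescaling placed full at 1 and none at 0.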
# [2] = tested on: SW872
# How it was run: as §1
# [3] = tested on: SW1353
# How it was run: as §1
# [4] = tested on: KHOS-NP
# How it was run: as §1
# [5] = tested on: RD-ES
# How it was run: as §1
# [6] = tested on: MES-SA
# How it was run: as §1
# [7] = tested on: SK-ES-1
# How it was run: as §1
# [8] = tested on: SW684
# How it was run: as §1
# [9] = tested on: SK-LMS-1
# How it was run: as §1
# [10] = tested on: G401
# How it was run: as §1
# [11] = tested on: VA-ES-BJ
# How it was run: as §1
# [12] = tested on: RD
# How it was run: as §1
smiles,measurement,setting,value
CN(C)C(=O)c1cc2cnc(Nc3ccc(N4CCNCC4)cn3)nc2n1C1CCCC1 [Ribociclib],relative viability,[1]; 0.00017 µM,1.08 ± 0.035
same,relative viability,[1]; 0.00051 µM,1.11 ± 0.04
same,relative viability,[1]; 0.00152 µM,1.08 ± 0.031
same,relative viability,[1]; 0.00457 µM,1.08 ± 0.035
same,relative viability,[1]; 0.01372 µM,1.05 ± 0.054
same,relative viability,[1]; 0.04115 µM,1.08 ± 0.033
same,relative viability,[1]; 0.1235 µM,1.1 ± 0.073
same,relative viability,[1]; 0.3704 µM,1.09 ± 0.032
same,relative viability,[1]; 1.111 µM,1.12 ± 0.035
same,relative viability,[1]; 3.333 µM,1.09 ± 0.011
same,relative viability,[1]; 10 µM,0.978 ± 0.011
same,relative viability,[2]; 0.00017 µM,1.03 ± 0.082
same,relative viability,[2]; 0.00051 µM,1.01 ± 0.049
same,relative viability,[2]; 0.00152 µM,1.02 ± 0.054
same,relative viability,[2]; 0.00457 µM,1.02 ± 0.061
same,relative viability,[2]; 0.01372 µM,1.02 ± 0.056
same,relative viability,[2]; 0.04115 µM,0.996 ± 0.067
same,relative viability,[2]; 0.1235 µM,0.959 ± 0.035
same,relative viability,[2]; 0.3704 µM,0.938 ± 0.068
same,relative viability,[2]; 1.111 µM,0.946 ± 0.033
same,relative viability,[2]; 3.333 µM,0.818 ± 0.066
same,relative viability,[2]; 10 µM,0.713 ± 0.047
same,relative viability,[3]; 0.00017 µM,1.01 ± 0.038
same,relative viability,[3]; 0.00051 µM,1 ± 0.06
same,relative viability,[3]; 0.00152 µM,0.974 ± 0.036
same,relative viability,[3]; 0.00457 µM,0.985 ± 0.017
same,relative viability,[3]; 0.01372 µM,0.992 ± 0.033
same,relative viability,[3]; 0.04115 µM,0.961 ± 0.039
same,relative viability,[3]; 0.1235 µM,0.921 ± 0.031
same,relative viability,[3]; 0.3704 µM,0.918 ± 0.044
same,relative viability,[3]; 1.111 µM,0.901 ± 0.012
same,relative viability,[3]; 3.333 µM,0.802 ± 0.02
same,relative viability,[3]; 10 µM,0.858 ± 0.046
same,relative viability,[4]; 0.00017 µM,1.08 ± 0.015
same,relative viability,[4]; 0.00051 µM,1.07 ± 0.02
same,relative viability,[4]; 0.00152 µM,1.06 ± 0.017
same,relative viability,[4]; 0.00457 µM,1.07 ± 0.043
same,relative viability,[4]; 0.01372 µM,1.06 ± 0.023
same,relative viability,[4]; 0.04115 µM,1.07 ± 0.026
same,relative viability,[4]; 0.1235 µM,1.07 ± 0.033
same,relative viability,[4]; 0.3704 µM,1.08 ± 0.013
same,relative viability,[4]; 1.111 µM,1.08 ± 0.012
same,relative viability,[4]; 3.333 µM,1.08 ± 0.011
same,relative viability,[4]; 10 µM,1.03 ± 0.019
same,relative viability,[5]; 0.00017 µM,0.9605 ± 0.0089
same,relative viability,[5]; 0.00051 µM,0.9809 ± 0.0049
same,relative viability,[5]; 0.00152 µM,0.959 ± 0.033
same,relative viability,[5]; 0.00457 µM,0.985 ± 0.029
same,relative viability,[5]; 0.01372 µM,0.926 ± 0.028
same,relative viability,[5]; 0.04115 µM,0.9 ± 0.033
same,relative viability,[5]; 0.1235 µM,0.845 ± 0.017
same,relative viability,[5]; 0.3704 µM,0.773 ± 0.041
same,relative viability,[5]; 1.111 µM,0.735 ± 0.049
same,relative viability,[5]; 3.333 µM,0.602 ± 0.022
same,relative viability,[5]; 10 µM,0.546 ± 0.04
same,relative viability,[6]; 0.00017 µM,0.899 ± 0.018
same,relative viability,[6]; 0.00051 µM,0.909 ± 0.044
same,relative viability,[6]; 0.00152 µM,0.914 ± 0.028
same,relative viability,[6]; 0.00457 µM,0.908 ± 0.035
same,relative viability,[6]; 0.01372 µM,0.896 ± 0.035
same,relative viability,[6]; 0.04115 µM,0.884 ± 0.04
same,relative viability,[6]; 0.1235 µM,0.868 ± 0.042
same,relative viability,[6]; 0.3704 µM,0.853 ± 0.056
same,relative viability,[6]; 1.111 µM,0.817 ± 0.05
same,relative viability,[6]; 3.333 µM,0.6876 ± 0.0047
same,relative viability,[6]; 10 µM,0.598 ± 0.029
same,relative viability,[7]; 0.00017 µM,1.03 ± 0.064
same,relative viability,[7]; 0.00051 µM,1.04 ± 0.049
same,relative viability,[7]; 0.00152 µM,1.06 ± 0.042
same,relative viability,[7]; 0.00457 µM,1.02 ± 0.058
same,relative viability,[7]; 0.01372 µM,1.04 ± 0.075
same,relative viability,[7]; 0.04115 µM,0.989 ± 0.011
same,relative viability,[7]; 0.1235 µM,0.837 ± 0.048
same,relative viability,[7]; 0.3704 µM,0.761 ± 0.04
same,relative viability,[7]; 1.111 µM,0.659 ± 0.031
same,relative viability,[7]; 3.333 µM,0.466 ± 0.024
same,relative viability,[7]; 10 µM,0.427 ± 0.0091
same,relative viability,[8]; 0.00017 µM,1.16 ± 0.034
same,relative viability,[8]; 0.00051 µM,1.16 ± 0.066
same,relative viability,[8]; 0.00152 µM,1.14 ± 0.015
same,relative viability,[8]; 0.00457 µM,1.15 ± 0.057
same,relative viability,[8]; 0.01372 µM,1.13 ± 0.043
same,relative viability,[8]; 0.04115 µM,1.15 ± 0.012
same,relative viability,[8]; 0.1235 µM,1.15 ± 0.059
same,relative viability,[8]; 0.3704 µM,1.14 ± 0.054
same,relative viability,[8]; 1.111 µM,1.17 ± 0.051
same,relative viability,[8]; 3.333 µM,1.1 ± 0.051
same,relative viability,[8]; 10 µM,1.05 ± 0.02
same,relative viability,[9]; 0.00017 µM,1.05 ± 0.05
same,relative viability,[9]; 0.00051 µM,1.05 ± 0.064
same,relative viability,[9]; 0.00152 µM,1.12 ± 0.049
same,relative viability,[9]; 0.00457 µM,1.08 ± 0.031
same,relative viability,[9]; 0.01372 µM,1.09 ± 0.017
same,relative viability,[9]; 0.04115 µM,1.11 ± 0.029
same,relative viability,[9]; 0.1235 µM,1.06 ± 0.095
same,relative viability,[9]; 0.3704 µM,1.01 ± 0.039
same,relative viability,[9]; 1.111 µM,0.99 ± 0.08
same,relative viability,[9]; 3.333 µM,0.952 ± 0.052
same,relative viability,[9]; 10 µM,0.9041 ± 0.0065
same,relative viability,[10]; 0.00017 µM,0.987 ± 0.028
same,relative viability,[10]; 0.00051 µM,0.968 ± 0.025
same,relative viability,[10]; 0.00152 µM,1.02 ± 0.029
same,relative viability,[10]; 0.00457 µM,0.983 ± 0.022
same,relative viability,[10]; 0.01372 µM,0.97 ± 0.038
same,relative viability,[10]; 0.04115 µM,0.899 ± 0.022
same,relative viability,[10]; 0.1235 µM,0.898 ± 0.018
same,relative viability,[10]; 0.3704 µM,0.886 ± 0.019
same,relative viability,[10]; 1.111 µM,0.846 ± 0.049
same,relative viability,[10]; 3.333 µM,0.794 ± 0.021
same,relative viability,[10]; 10 µM,0.774 ± 0.049
same,relative viability,[11]; 0.00017 µM,1.03 ± 0.067
same,relative viability,[11]; 0.00051 µM,1.04 ± 0.025
same,relative viability,[11]; 0.00152 µM,1.01 ± 0.04
same,relative viability,[11]; 0.00457 µM,0.995 ± 0.033
same,relative viability,[11]; 0.01372 µM,0.988 ± 0.026
same,relative viability,[11]; 0.04115 µM,0.985 ± 0.028
same,relative viability,[11]; 0.1235 µM,0.931 ± 0.043
same,relative viability,[11]; 0.3704 µM,0.869 ± 0.041
same,relative viability,[11]; 1.111 µM,0.872 ± 0.038
same,relative viability,[11]; 3.333 µM,0.712 ± 0.02
same,relative viability,[11]; 10 µM,0.597 ± 0.0071
same,relative viability,[12]; 0.00017 µM,1.13 ± 0.046
same,relative viability,[12]; 0.00051 µM,1.06 ± 0.069
same,relative viability,[12]; 0.00152 µM,1.08 ± 0.043
same,relative viability,[12]; 0.00457 µM,1.12 ± 0.047
same,relative viability,[12]; 0.01372 µM,1.09 ± 0.038
same,relative viability,[12]; 0.04115 µM,1.05 ± 0.057
same,relative viability,[12]; 0.1235 µM,1.04 ± 0.068
same,relative viability,[12]; 0.3704 µM,1.06 ± 0.033
same,relative viability,[12]; 1.111 µM,0.995 ± 0.072
same,relative viability,[12]; 3.333 µM,0.915 ± 0.043
same,relative viability,[12]; 10 µM,0.87 ± 0.062
